Common to all, as to assay type: in vivo
For data set [1], the system named is a plurality of harmful plants. Briefly: Herbicidal pre-emergence action. To be noted: 320 g or less of active substance per hectare. An excerpt: Seeds of monocotyledonous and dicotyledonous weed plants and crop plants are placed in wood-fiber pots in sandy loam and covered with soil. The compounds (I) according to the invention, formulated in the form of wettable powders (WP), are then applied as aqueous suspension or emulsion at a water application rate of 600 l/ha (converted) with the addition of 0.2% of wetting agent to the surface of the covering soil.
After the treatment, the pots are placed in a greenhouse and kept under good growth conditions for the test plants. After about 3 weeks, the effect of the preparations is scored visually in comparison with untreated controls as percentages. For example, 100% activity=the plants have died, 50% herbicidal activity or damage=the plants have been reduced by 50% or the plant mass has been reduced by 50%, 0% activity=like control plants.

In data set [2] the test system is Viola tricolor. The experiment in a line: Herbicidal action and crop plant compatibility, post-emergence (3.3). To be noted: 80 g/ha, 4 weeks after the treatment. The protocol: (§1) 3.3 In further trials in the greenhouse, seeds of crop plants and seeds of harmful plants are placed in pots in sandy loam soil, covered with earth and cultivated under good growth conditions. The test plants are treated at the 2-3-leaf stage, where the compounds (I) according to the invention, formulated in the form of wettable powders (WP), are applied by spraying as aqueous suspension or emulsion at a water application rate of […] (converted) with the addition of 0.2% of wetting agent to the green parts of the plants. 4 weeks after the treatment and after the test plants have been kept in the greenhouse under optimum growth conditions, the activity of the preparations is rated visually in comparison to untreated controls in percent (%): For example, 100% activity=the plants have died, 50% herbicidal activity or damage=the plants have been reduced by 50% or the plant mass has been reduced by 50%, 0% activity=like control plants.

Data set [3] deals with Polygonum convolvulus. The description is as above. Particulars: 80 g/ha, 4 weeks after the treatment. How it is done: as §1
The next data set concerns oilseed rape. The data set is described as above. To be noted: 80 g/ha, 4 weeks after the treatment. How it is done: as §1
For data set [4], the system named is Echinochloa crus-galli. The description is as above. Particulars: 80 g/ha, 4 weeks after the treatment. How it is done:
as §1

A further data set has as its system wheat. The description is as above. Particulars: 80 g/ha, 4 weeks after the treatment. The protocol: as §1
In data set [5] the test system is Veronica persica. The data set is described as above. Particulars: 80 g/ha, 4 weeks after the treatment. How it is done:
as §1

Data set [6] relates to Setaria viridis. Described as above. Particulars: 80 g/ha, 4 weeks after the treatment. How it is done: as §1
For data set [7], the system named is Avena fatua. Described as above. To be noted: 80 g/ha, 4 weeks after the treatment. How it is done: as §1
The test system of data set [8] is Viola tricolor. The experiment in a line: Herbicidal action and crop plant compatibility, pre-emergence (3.2). Particulars: 80 g/ha, about 4 weeks. An excerpt: (§2) 3.2 In further trials in the greenhouse, seeds of crop plants and seeds of harmful plants are placed in pots in sandy loam soil, covered with earth and cultivated under good growth conditions. The compounds (I) according to the invention, formulated in the form of wettable powders (WP), are then applied as aqueous suspension or emulsion at a water application rate of 300 l/ha (converted) with the addition of 0.2% of wetting agent to the surface of the covering soil. After the test plants have been kept in the greenhouse under optimum growth conditions for about 4 weeks, the activity of the preparations is rated visually in comparison to untreated controls in percent (%): For example, 100% activity=the plants have died, 50% herbicidal activity or damage=the plants have been reduced by 50% or the plant mass has been reduced by 50%, 0% activity=like control plants.

Data set [9] has as its system Polygonum convolvulus. The data set is described as above. Particulars: 80 g/ha, about 4 weeks.
From the text: as §2

Another data set deals with Amaranthus retroflexus. The data set is described as above. To be noted: 80 g/ha, about 4 weeks.
From the text: as §2

A further data set deals with Alopecurus myosuroides. The data set is described as above. Particulars: 80 g/ha, about 4 weeks.
From the text: as §2

The test system of data set [10] is Echinochloa crus-galli. The description is as above. Particulars: 80 g/ha, about 4 weeks.
From the text: as §2

The test system of a further data set is Lolium multiflorum. The data set is described as above. Particulars: 80 g/ha, about 4 weeks.
From the text: as §2

Data set [11] deals with Veronica persica. The description is as above. Particulars: 80 g/ha, about 4 weeks.
From the text: as §2

The subject of data set [12] is Setaria viridis. Described as above. Particulars: 80 g/ha, about 4 weeks.
From the text: as §2

For data set [13], the system named is Avena fatua. Described as above. To be noted: 80 g/ha, about 4 weeks.
From the text: as §2

Structures are written as SMILES.

Regarding `CCCCOC(=O)C[C@@H](c1cccc(F)c1)[C@@H](C#N)c1ccc(F)c(F)c1` [Example 86], the “herbicidal activity against a plurality of harmful plants” value (“herbicidal activity against a plurality” below) in [1] is reported as “good herbicidal activity”. Further, in the data set on Viola tricolor [2], the “herbicidal activity against Viola tricolor” value is 80%. In addition, the “herbicidal activity against Polygonum convolvulus” value in the data set on Polygonum convolvulus [3] is recorded as 80%. Besides, in the data set on oilseed rape, the “selectivity in oilseed rape (damage)” value was found to be 0%. Further, the “herbicidal activity against Echinochloa crus-galli” value with Echinochloa crus-galli [4] is listed as 80%. Moreover, in the data set with wheat, the “selectivity in wheat (damage)” value is “up to 10%”. Further, the “herbicidal activity against Veronica persica” value in the data set on Veronica persica [5] is given as 70%. Moreover, in the data set with Setaria viridis [6], the “herbicidal activity against Setaria virides” value is 80%. Moreover, the “herbicidal activity against Avena fatua” value in the data set with Avena fatua [7] was 90%.
With `COC(=O)C[C@@H](c1cc(F)ccc1F)[C@@H](C#N)c1cccc(C#N)c1` [Example 330], the “herbicidal activity against a plurality” value in data set [1] was “good herbicidal activity”.
Regarding `N#C[C@@H](c1cccc(F)c1)[C@@H](CC(=O)OCCSc1ccccc1)c1ccc(Cl)cc1` [Example 54], in [1], the “herbicidal activity against a plurality” value was “good herbicidal activity”.
Same read-out and setting: under `N#C[C@@H](c1cccc(F)c1)[C@@H](CC(=O)OC1COC1)c1ccc(Cl)cc1` [Example 53] stands “good herbicidal activity”.
For the molecule `COC(=O)C[C@@H](c1ccc(Cl)cc1)[C@@H](C#N)c1cccc(F)c1` [Example 1, methyl (3R,4R)-3-(4-chlorophenyl)-4-cyano-4-(3-fluorophenyl)butanoate], the “herbicidal activity against a plurality” value in [1] is “good herbicidal activity”. The “herbicidal activity against Viola tricolor” value in the data set with Viola tricolor [8] fell in the range of 80 to 100%. In addition, the “herbicidal activity against Polygonum convolvulus” value in the data set with Polygonum convolvulus [9] is 80 to 100%. For the same molecule, the “herbicidal activity against Amaranthus retroflexus” value with Amaranthus retroflexus lay in the range of 80 to 100%. The “herbicidal activity against Alopecurus myosuroides” value with Alopecurus myosuroides lay in the range of 80 to 100%. In the data set with Echinochloa crus-galli [10], the “herbicidal activity against Echinochloa crus-galli” value lay within 80 to 100%. Further, the “herbicidal activity against Lolium multiflorum” value with Lolium multiflorum lay in the range of 80 to 100%. For the same molecule, in the data set on Veronica persica [11], the “herbicidal activity against Veronica persica” value lay in the range of 80 to 100%. For the same molecule, in the data set on Setaria viridis [12], the “herbicidal activity against Setaria viridis” value was 80 to 100%. Besides, the “herbicidal activity against Avena fatua” value in the data set on Avena fatua [13] lay in the range of 80 to 100%.
